Where only a bound is given, the exact number is not on record here.

One test has as its target Cannabinoid receptor 1 (Homo sapiens, UniProt P21554). Nature of the test: Evaluated for binding affinity against recombinant human central cannabinoid receptor 1.
A further test has as its target Cannabinoid receptor 2 (Homo sapiens, UniProt P34972). Nature of the test: Evaluated for binding affinity against recombinant human peripheral cannabinoid receptor 2.

Sequence of Cannabinoid receptor 1 (P21554 whole entry): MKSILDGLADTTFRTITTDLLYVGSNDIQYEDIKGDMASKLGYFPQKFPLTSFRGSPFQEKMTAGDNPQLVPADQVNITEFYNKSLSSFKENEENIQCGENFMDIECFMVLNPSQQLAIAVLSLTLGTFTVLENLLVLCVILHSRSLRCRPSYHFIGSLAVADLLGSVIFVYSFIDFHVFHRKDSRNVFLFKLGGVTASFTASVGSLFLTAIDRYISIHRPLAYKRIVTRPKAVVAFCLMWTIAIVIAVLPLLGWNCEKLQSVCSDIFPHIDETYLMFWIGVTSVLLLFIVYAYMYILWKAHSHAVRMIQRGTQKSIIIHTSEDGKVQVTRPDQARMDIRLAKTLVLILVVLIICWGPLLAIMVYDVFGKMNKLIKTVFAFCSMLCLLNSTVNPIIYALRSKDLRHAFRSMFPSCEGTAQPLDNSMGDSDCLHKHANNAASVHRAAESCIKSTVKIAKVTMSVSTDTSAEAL
Sequence of Cannabinoid receptor 2 (P34972 whole entry): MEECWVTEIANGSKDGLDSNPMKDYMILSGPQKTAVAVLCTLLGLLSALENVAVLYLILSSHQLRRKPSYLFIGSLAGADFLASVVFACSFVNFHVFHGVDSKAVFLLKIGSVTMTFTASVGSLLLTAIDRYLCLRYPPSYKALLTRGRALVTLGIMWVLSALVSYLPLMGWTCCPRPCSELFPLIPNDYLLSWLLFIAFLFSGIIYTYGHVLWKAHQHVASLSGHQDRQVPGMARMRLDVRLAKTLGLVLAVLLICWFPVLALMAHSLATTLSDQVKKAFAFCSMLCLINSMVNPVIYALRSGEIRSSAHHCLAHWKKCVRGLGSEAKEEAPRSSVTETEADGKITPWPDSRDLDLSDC

What is called Ki is a measure of affinity in units of concentration, obtained from inhibition or displacement. On to `COc1ccc2c(c1)c(CC(=O)N1CCOCC1)c(C)n2C(=O)c1ccc(Cl)cc1` [INDOMETHACIN MORPHOLINYLAMIDE], for which the Ki at Cannabinoid receptor 1 was more than 20000 nM; at Cannabinoid receptor 2 it was 435 nM.
Regarding `COc1ccc2c(c1)c(CC(=O)N1CCOCC1)c(C)n2Cc1cccc(Cl)c1Cl`, the inhibition constant (Ki) is more than 20000 nM at Cannabinoid receptor 1 and 1050 nM at Cannabinoid receptor 2.
Turning to `COc1ccc2c(c1)c(CC(=O)N1CCOCC1)c(C)n2C(=O)c1ccccc1Cl`, the Ki was 3600 nM at Cannabinoid receptor 1 and 69 nM on Cannabinoid receptor 2.
Consider `COC(=O)Cc1c(C)n(C(=O)c2ccc(Cl)cc2)c2ccc(OC)cc12`, for which the Ki was more than 20000 nM on Cannabinoid receptor 1 and 4020 nM at Cannabinoid receptor 2.
For `COc1ccc2c(c1)c(CC(=O)O)c(C)n2C(=O)c1ccc(Cl)cc1` [INDOMETHACIN], the Ki on Cannabinoid receptor 2 is more than 20000 nM.
On to `COc1ccc2c(c1)c(CC(=O)N1CCOCC1)c(C)n2C(=O)c1cccc(Cl)c1`, for which the Ki stood at 16800 nM at Cannabinoid receptor 1 and 354 nM on Cannabinoid receptor 2.
As to `Cc1c(CCN2CCOCC2)c2ccccc2n1C(=O)c1cccc(Cl)c1Cl`, the Ki on Cannabinoid receptor 1 was determined as 3190 nM; on Cannabinoid receptor 2, 27 nM.
As to `Cc1c(C(=O)c2cccc3ccccc23)c2ccccc2n1CCN1CCOCC1`, the inhibitory constant (Ki) on Cannabinoid receptor 1 turned out to be 638 nM; on Cannabinoid receptor 2, 14 nM.
`COC(=O)Cc1c(C)n(C(=O)c2ccccc2Cl)c2ccc(OC)cc12`: the Ki at Cannabinoid receptor 1 was found to be 1720 nM; at Cannabinoid receptor 2, 397 nM.
For `COc1ccc2c(c1)c(CN1CCOCC1)c(C)n2C(=O)c1cccc(Cl)c1Cl`, the Ki on Cannabinoid receptor 1 amounted to 3360 nM; at Cannabinoid receptor 2, 22 nM.
Regarding `COC(=O)Cc1c(C)n(C(=O)c2cccc3ccccc23)c2ccc(OC)cc12`, the inhibitory constant (Ki) at Cannabinoid receptor 1 is 4610 nM; at Cannabinoid receptor 2, 142 nM.
For `COc1ccc2c(c1)c(CC(=O)N1CCOCC1)c(C)n2C(=O)c1cccc(Cl)c1Cl`, in that order: 2040 nM and 14 nM.
On to `Cc1c(CN2CCOCC2)c2ccccc2n1C(=O)c1cccc2ccccc12`, for which the inhibitory constant (Ki) on Cannabinoid receptor 1 came to 877 nM; on Cannabinoid receptor 2, 8.5 nM.
For `COc1ccc2c(c1)c(CC(=O)N1CCOCC1)c(C)n2C(=O)c1ccc(F)cc1Cl`, the Ki on Cannabinoid receptor 1 stood at 5570 nM; at Cannabinoid receptor 2, 134 nM.
Taken in the same sequence, the figures for `COc1ccc2c(c1)c(CCN1CCOCC1)c(C)n2C(=O)c1ccc(Cl)cc1` were 10300 nM and 213 nM.
Taken in the same sequence, the figures for `Cc1c(CN2CCOCC2)c2ccccc2n1-c1cccc2ccccc12` were 6680 nM and 7840 nM.
Turning to `COc1ccc2c(c1)c(CC(=O)N1CCOCC1)c(C)n2C(=O)c1c(Cl)cccc1Cl`, the inhibition constant Ki at Cannabinoid receptor 1 came out at 2550 nM; on Cannabinoid receptor 2, 59 nM.
As to `COc1ccc2c(c1)c(CCN1CCOCC1)c(C)n2C(=O)c1cccc(Cl)c1Cl`, the Ki at Cannabinoid receptor 1 was 1920 nM; on Cannabinoid receptor 2, 12 nM.
In the case of `Cc1c(CCN2CCOCC2)c2ccccc2n1C(=O)c1cccc2ccccc12`, the Ki on Cannabinoid receptor 1 was found to be 2180 nM; at Cannabinoid receptor 2, 216 nM.

The record behind these values is ChEMBL document CHEMBL1129173, “New class of potent ligands for the human peripheral cannabinoid receptor” (Bioorg Med Chem Lett, 1996).
